# Reference: ChEMBL document CHEMBL5291721, “A preclinical secondary pharmacology resource illuminates target-adverse drug reaction associations of marketed drugs” (Nat Commun, 2023)
# Tests used:
# [1] = molecular target: Gamma-aminobutyric acid receptor subunit alpha-1/alpha-2/beta-2/gamma-2 (Homo sapiens, UniProt P14867+P18507+P47869+P47870); assay type: protein-complex assay
# [2] = molecular target: T1, Alpha-2A adrenergic receptor (Homo sapiens, UniProt P08913); assay type: functional, cell-based
# T1 sequence (P08913 whole entry): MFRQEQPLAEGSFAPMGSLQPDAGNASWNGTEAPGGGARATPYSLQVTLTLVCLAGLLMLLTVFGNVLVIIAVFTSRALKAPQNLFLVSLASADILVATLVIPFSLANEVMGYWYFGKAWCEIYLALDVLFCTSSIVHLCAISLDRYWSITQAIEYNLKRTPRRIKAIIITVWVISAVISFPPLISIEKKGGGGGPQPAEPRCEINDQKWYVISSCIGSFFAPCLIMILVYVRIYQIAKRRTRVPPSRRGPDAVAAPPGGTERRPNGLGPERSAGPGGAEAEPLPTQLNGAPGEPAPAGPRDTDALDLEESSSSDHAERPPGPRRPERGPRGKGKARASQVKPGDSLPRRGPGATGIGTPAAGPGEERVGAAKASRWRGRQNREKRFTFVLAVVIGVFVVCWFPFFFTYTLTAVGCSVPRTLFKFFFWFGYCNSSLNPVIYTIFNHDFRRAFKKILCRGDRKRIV
# [3] = molecular target: Voltage-dependent L-type calcium channel subunit alpha-1C (Rattus norvegicus, UniProt P22002); assay type: functional
# [4] = molecular target: Neuronal acetylcholine receptor subunit alpha-4 (Homo sapiens, UniProt P43681)
# Chain of Neuronal acetylcholine receptor subunit alpha-4 (P43681 whole entry): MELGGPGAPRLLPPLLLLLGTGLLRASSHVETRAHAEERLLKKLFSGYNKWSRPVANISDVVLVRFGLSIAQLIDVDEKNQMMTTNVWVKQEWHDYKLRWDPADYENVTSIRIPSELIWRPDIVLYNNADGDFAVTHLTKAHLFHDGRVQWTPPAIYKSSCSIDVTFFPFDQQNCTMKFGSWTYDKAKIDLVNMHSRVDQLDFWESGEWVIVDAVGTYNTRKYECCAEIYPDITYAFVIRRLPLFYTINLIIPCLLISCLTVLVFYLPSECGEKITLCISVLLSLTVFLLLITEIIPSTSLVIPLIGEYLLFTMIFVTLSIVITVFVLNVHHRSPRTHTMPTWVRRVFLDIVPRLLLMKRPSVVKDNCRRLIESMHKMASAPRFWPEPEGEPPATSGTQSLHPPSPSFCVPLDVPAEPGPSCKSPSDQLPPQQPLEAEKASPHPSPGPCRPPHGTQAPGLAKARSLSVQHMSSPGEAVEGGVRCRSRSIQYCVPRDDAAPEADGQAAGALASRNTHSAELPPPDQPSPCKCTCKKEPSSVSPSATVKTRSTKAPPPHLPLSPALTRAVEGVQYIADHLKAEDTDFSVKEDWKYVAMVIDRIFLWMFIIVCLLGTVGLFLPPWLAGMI
# Cannabinoid receptor 1 = Cannabinoid receptor 1 (Homo sapiens, UniProt P21554); assay type: functional, cell-based
# Endothelin-1 receptor = molecular target: T2, Endothelin-1 receptor (Homo sapiens, UniProt P25101)
# T2 sequence (P25101 whole entry): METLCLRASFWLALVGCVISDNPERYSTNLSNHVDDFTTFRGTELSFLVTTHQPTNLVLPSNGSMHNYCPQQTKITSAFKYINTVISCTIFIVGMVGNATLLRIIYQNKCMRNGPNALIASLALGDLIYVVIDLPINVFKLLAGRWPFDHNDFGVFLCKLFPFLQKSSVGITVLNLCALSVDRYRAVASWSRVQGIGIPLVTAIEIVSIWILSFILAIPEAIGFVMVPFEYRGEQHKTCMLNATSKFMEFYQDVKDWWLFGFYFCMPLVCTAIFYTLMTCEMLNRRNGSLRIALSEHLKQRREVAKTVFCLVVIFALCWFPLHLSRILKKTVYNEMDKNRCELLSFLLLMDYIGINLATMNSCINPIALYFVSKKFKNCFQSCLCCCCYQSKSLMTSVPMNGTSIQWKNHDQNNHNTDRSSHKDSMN
# [5] = molecular target: Gamma-aminobutyric acid receptor subunit alpha-1 (Rattus norvegicus, UniProt P62813); assay type: functional
# Glucocorticoid receptor = molecular target: T3, Glucocorticoid receptor (Homo sapiens, UniProt P04150)
# T3 sequence (P04150 whole entry): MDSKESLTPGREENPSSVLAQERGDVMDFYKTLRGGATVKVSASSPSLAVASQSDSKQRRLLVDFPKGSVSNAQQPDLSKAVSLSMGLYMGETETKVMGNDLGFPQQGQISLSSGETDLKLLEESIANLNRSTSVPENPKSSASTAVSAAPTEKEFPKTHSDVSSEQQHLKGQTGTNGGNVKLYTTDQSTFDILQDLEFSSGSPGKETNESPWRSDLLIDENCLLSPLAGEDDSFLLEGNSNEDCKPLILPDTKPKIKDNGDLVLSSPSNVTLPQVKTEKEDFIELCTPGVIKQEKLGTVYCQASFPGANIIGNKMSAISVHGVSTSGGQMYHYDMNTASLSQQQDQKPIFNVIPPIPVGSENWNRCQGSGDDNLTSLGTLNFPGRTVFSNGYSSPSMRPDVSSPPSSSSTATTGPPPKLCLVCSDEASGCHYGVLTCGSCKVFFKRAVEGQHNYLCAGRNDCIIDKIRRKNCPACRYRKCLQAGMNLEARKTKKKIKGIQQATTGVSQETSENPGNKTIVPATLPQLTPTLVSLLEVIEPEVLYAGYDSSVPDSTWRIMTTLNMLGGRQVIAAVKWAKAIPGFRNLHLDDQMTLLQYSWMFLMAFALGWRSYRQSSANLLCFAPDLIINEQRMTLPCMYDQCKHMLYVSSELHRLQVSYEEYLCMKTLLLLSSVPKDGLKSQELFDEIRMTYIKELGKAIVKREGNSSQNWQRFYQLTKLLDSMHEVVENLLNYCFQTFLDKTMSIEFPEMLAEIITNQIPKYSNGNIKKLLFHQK
# Mu-type opioid receptor = Mu-type opioid receptor (Homo sapiens, UniProt P35372); assay: biochemical; assay type: functional
# Chain of Mu-type opioid receptor (P35372 whole entry): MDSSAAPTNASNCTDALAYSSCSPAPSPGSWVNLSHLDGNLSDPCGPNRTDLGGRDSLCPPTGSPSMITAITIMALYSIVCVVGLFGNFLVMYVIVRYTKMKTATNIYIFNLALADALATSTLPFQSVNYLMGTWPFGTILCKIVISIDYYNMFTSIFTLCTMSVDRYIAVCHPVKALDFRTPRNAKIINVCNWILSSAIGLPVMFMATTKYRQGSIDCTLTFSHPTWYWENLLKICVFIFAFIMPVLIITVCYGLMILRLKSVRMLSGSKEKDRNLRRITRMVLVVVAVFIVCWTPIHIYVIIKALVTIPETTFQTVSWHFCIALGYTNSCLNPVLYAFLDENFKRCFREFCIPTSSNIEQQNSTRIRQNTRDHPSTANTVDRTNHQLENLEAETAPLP
# [6] = molecular target: Sodium-dependent dopamine transporter (Homo sapiens, UniProt Q01959)
# Chain of Sodium-dependent dopamine transporter (Q01959 whole entry): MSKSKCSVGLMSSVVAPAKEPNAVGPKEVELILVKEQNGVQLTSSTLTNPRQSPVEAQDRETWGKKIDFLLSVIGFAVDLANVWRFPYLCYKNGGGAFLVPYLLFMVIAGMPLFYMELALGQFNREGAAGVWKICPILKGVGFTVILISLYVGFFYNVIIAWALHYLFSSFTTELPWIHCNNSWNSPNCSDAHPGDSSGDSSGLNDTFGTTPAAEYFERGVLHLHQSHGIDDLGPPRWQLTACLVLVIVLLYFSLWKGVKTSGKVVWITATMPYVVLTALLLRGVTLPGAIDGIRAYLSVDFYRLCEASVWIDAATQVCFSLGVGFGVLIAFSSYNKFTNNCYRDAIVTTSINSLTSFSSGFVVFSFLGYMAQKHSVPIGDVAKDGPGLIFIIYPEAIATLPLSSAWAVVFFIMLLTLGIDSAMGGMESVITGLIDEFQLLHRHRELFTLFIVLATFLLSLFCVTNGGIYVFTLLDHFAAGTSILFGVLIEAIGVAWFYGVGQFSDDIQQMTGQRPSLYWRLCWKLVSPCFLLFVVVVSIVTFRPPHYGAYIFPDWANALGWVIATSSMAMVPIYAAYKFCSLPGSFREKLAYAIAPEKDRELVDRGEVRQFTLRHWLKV
# [7] = molecular target: cGMP-inhibited 3',5'-cyclic phosphodiesterase 3A (Homo sapiens, UniProt Q14432); assay type: functional
# Chain of cGMP-inhibited 3',5'-cyclic phosphodiesterase 3A (Q14432 whole entry): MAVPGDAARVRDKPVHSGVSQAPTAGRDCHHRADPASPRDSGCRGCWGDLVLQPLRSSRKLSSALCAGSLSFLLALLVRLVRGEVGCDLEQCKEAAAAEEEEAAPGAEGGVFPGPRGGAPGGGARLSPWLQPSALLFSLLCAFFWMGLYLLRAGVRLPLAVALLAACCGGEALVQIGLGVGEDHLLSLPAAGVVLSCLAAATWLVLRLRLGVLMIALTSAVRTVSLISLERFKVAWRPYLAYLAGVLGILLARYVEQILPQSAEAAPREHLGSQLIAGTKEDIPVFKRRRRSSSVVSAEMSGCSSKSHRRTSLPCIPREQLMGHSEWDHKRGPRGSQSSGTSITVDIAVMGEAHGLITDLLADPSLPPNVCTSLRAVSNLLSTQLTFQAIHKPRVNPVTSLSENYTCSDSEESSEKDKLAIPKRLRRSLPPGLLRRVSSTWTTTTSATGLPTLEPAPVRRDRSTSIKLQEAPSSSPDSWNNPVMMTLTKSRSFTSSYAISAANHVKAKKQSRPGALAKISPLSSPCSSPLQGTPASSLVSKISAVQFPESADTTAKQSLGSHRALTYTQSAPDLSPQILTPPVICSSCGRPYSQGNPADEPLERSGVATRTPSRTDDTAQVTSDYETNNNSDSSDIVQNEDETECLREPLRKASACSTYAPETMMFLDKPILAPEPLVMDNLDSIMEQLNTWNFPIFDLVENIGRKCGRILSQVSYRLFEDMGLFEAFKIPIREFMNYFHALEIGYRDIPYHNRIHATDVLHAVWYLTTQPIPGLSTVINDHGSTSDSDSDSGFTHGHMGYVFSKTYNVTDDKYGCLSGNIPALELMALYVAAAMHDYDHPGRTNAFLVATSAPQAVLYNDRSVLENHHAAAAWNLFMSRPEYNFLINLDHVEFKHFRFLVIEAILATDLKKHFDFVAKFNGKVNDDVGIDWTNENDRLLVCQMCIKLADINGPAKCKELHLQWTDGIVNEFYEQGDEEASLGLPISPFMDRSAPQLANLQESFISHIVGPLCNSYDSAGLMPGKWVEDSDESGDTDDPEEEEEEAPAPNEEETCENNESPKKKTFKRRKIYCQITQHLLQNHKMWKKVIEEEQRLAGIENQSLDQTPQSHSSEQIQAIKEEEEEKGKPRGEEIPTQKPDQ
# D(3) dopamine receptor = D(3) dopamine receptor (Homo sapiens, UniProt P35462)
# Histamine H1 receptor = Histamine H1 receptor (Homo sapiens, UniProt P35367)
# [8] = molecular target: 5-hydroxytryptamine receptor 2A (Homo sapiens, UniProt P28223); assay type: functional, cell-based
# Further: assay procedure not described here.
# Chain of Gamma-aminobutyric acid receptor subunit alpha-1/alpha-2/beta-2/gamma-2 (P14867 whole entry): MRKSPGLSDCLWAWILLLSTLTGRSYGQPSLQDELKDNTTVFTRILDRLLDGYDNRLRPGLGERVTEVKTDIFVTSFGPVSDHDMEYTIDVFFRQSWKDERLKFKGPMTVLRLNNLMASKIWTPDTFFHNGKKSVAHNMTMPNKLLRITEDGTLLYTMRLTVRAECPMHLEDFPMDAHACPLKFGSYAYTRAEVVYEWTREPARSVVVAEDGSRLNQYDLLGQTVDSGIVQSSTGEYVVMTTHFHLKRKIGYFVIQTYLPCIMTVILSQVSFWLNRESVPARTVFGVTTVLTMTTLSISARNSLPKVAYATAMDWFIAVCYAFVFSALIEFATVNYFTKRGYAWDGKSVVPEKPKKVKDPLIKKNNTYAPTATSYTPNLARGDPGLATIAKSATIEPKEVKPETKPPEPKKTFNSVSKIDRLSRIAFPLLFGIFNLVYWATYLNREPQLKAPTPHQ
# Chain of Gamma-aminobutyric acid receptor subunit alpha-1/alpha-2/beta-2/gamma-2 (P47870 whole entry): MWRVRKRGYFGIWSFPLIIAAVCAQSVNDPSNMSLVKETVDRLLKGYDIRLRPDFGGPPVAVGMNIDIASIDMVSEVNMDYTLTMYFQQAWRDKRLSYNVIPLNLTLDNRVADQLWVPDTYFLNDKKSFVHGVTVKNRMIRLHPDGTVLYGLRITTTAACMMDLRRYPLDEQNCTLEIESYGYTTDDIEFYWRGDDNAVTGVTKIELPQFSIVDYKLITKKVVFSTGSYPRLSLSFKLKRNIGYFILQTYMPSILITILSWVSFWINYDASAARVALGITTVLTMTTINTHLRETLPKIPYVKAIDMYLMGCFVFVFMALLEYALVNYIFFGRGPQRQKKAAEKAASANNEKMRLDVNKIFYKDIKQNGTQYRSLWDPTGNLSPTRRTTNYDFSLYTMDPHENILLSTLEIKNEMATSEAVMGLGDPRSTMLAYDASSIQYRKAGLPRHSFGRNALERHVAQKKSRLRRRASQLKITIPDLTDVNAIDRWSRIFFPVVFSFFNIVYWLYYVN
# Chain of Gamma-aminobutyric acid receptor subunit alpha-1/alpha-2/beta-2/gamma-2 (P18507 whole entry): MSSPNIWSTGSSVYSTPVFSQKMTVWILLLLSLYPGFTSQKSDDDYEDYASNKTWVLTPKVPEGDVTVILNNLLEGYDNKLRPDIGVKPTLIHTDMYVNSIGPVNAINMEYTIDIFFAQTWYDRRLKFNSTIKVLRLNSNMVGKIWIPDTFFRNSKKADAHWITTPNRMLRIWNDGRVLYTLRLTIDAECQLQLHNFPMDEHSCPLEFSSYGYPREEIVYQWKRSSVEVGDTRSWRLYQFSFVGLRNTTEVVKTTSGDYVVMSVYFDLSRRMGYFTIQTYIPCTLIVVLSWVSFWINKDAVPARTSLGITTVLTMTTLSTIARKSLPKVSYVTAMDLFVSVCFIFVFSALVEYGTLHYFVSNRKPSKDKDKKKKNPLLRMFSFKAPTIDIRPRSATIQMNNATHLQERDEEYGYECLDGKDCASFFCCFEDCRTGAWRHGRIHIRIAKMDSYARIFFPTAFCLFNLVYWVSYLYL
# Chain of Gamma-aminobutyric acid receptor subunit alpha-1/alpha-2/beta-2/gamma-2 (P47869 whole entry): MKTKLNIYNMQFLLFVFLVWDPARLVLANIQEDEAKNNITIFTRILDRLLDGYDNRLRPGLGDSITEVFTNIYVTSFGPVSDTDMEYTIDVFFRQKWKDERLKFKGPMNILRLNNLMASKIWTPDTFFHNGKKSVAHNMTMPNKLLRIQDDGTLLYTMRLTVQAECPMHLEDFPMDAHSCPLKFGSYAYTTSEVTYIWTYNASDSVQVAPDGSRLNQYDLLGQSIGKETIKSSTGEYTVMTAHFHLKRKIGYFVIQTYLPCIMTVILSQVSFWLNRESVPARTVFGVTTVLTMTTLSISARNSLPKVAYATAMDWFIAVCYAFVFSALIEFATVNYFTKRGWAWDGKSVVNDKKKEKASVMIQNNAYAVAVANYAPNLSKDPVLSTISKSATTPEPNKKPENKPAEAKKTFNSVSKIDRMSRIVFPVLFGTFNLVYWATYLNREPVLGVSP
compound,measurement,setting,value
Cc1cc(CCN2CCN(c3cccc(Cl)c3)CC2)n[nH]1 [MEPIPRAZOLE],AC50,[1],> 30 µM
CC[N+](C)(CC)CCOC(=O)C1c2ccccc2Oc2ccccc21 [METHANTHELINE],AC50,[1],> 30 µM
CCOC(=O)[C@H](CCc1ccccc1)N[C@@H](C)C(=O)N1Cc2cc(OC)c(OC)cc2C[C@H]1C(=O)O [MOEXIPRIL],AC50,[1],> 30 µM
CC(c1ccc(Cl)c(Cl)c1)N1N=C(N)CC1=O (stereo unspecified) [MUZOLIMINE],AC50,[1],> 30 µM
CCN(CC)CCOC(=O)C(Cc1cccc2ccccc12)CC1CCCO1 (stereo unspecified) [NAFRONYL],AC50,[1],> 30 µM
N[C@@H](Cc1c[nH]c2ccc(O)cc12)C(=O)O [OXITRIPTAN],AC50,[1],> 30 µM
CNC(=O)Oc1ccc2c(c1)[C@]1(C)CCN(C)[C@@H]1N2C [PHYSOSTIGMINE],AC50,[2],> 30 µM
same,AC50,[3],> 30 µM
same,AC50,[4],> 30 µM
same,AC50,Cannabinoid receptor 1,> 30 µM
same,AC50,Endothelin-1 receptor,> 30 µM
same,AC50,[1],> 30 µM
same,AC50,[5],> 30 µM
same,AC50,Glucocorticoid receptor,> 30 µM
same,AC50,Mu-type opioid receptor,> 30 µM
same,AC50,[6],> 30 µM
same,AC50,[7],> 30 µM
same,AC50,D(3) dopamine receptor,> 30 µM
C1CNCCN1 [PIPERAZINE],AC50,[1],> 30 µM
c1cc(CN2CCCNCCNCCCNCC2)ccc1CN1CCCNCCNCCCNCC1 [PLERIXAFOR],AC50,[1],> 30 µM
CO[C@H]1/C=C/O[C@@]2(C)Oc3c(C)c(O)c4c(O)c(cc(O)c4c3C2=O)NC(=O)/C(C)=C\C=C\[C@H](C)[C@H](O)[C@@H](C)[C@@H](O)[C@@H](C)[C@H](OC(C)=O)[C@@H]1C [RIFAMYCIN],AC50,[1],> 30 µM
CCCC(=O)O[C@H]1[C@H](C)O[C@@H](O[C@H]2[C@H](N(C)C)[C@@H](O)[C@H](O[C@H]3[C@@H](CC=O)C[C@@H](C)[C@@H](O)/C=C/C=C/C[C@@H](C)OC(=O)C[C@@H](O)[C@@H]3OC)O[C@@H]2C)C[C@@]1(C)OC(=O)CC [ROKITAMYCIN],AC50,[1],> 30 µM
O=C(Oc1ccccc1C(=O)O)c1ccccc1O [SALSALATE],AC50,[1],> 30 µM
COc1cc([C@@H]2c3cc4c(cc3[C@@H](O[C@@H]3O[C@@H]5CO[C@@H](c6cccs6)O[C@H]5[C@H](O)[C@H]3O)[C@H]3COC(=O)[C@H]23)OCO4)cc(OC)c1O [TENIPOSIDE],AC50,[1],> 30 µM
c1ccc2[nH]c(-c3cscn3)nc2c1 [THIABENDAZOLE],AC50,[1],> 30 µM
CCSc1ccc2c(c1)N(CCCN1CCN(C)CC1)c1ccccc1S2 [THIETHYLPERAZINE],AC50,[4],> 3 µM
same,AC50,[1],> 30 µM
same,AC50,Histamine H1 receptor,170 nM
same,AC50,[8],> 30 µM
same,AC50,[6],15 µM
same,AC50,[7],> 30 µM
